By IC50 is commonly meant the midpoint of a concentration-inhibition curve. The low end stands for greater potency in that assay, the high end for weaker potency in that assay.

1 compound from ChEMBL document CHEMBL6109160, “Novel Cyclic Peptides as Interleukin-23 Inhibitor for Treating Inflammatory Disorders” (ACS Med Chem Lett, 2025) can be followed below.

This assay addresses T1, Interleukin-23 receptor (Homo sapiens, UniProt Q5VWK5).
T1 sequence (Q5VWK5 whole entry): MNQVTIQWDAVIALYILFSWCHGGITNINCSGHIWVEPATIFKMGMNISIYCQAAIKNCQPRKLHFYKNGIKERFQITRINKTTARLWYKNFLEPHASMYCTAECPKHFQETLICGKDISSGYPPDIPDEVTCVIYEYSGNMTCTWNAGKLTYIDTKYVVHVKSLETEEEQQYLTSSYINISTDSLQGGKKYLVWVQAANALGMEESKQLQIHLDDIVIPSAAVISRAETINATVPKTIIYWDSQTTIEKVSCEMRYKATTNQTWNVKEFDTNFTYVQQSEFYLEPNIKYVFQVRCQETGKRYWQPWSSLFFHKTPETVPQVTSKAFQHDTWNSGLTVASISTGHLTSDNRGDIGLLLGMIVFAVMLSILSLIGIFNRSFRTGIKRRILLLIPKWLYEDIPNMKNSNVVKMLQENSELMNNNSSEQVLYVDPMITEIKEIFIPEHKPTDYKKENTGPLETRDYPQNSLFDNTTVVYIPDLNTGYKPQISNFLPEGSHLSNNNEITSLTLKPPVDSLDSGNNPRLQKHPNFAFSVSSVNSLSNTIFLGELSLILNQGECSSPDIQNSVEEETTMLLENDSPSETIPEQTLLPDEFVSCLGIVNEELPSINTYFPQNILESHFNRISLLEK
Briefly: Binding affinity to Interleukin-23 receptor in HEK293 cells transfected with firefly luciferase reporter incubated for 5 hrs by luminescence based analysis. The format is cell-based. (A reporter such as luciferase makes a cellular process visible.)

Structures are written as SMILES.

For `CC(=O)NCCCC[C@@H]1NC(=O)[C@H](Cc2c[nH]c3c(C)cccc23)NC(=O)[C@H]([C@@H](C)O)NC(=O)[C@H](CC(N)=O)NC(=O)[C@@H](NC(=O)CCOCCOCC[N+](C)(C)C)C(C)(C)SSC(C)(C)[C@@H](C(=O)N[C@@H](Cc2ccc(OCCN)cc2)C(=O)N[C@@H](Cc2ccc3ccccc3c2)C(=O)NC2(C(=O)N[C@@H](CCC(=O)O)C(=O)N[C@@H](CC(N)=O)C(=O)N[C@@H](Cc3cccnc3)C(=O)N(C)CC(N)=O)CCOCC2)NC1=O`, the IC50 stood at 12 nM.
